According to publication PMC6403232, “Production and Anticancer Activity of an L-Asparaginase from Bacillus licheniformis Isolated from the Red Sea, Saudi Arabia” (Scientific Reports, 2019):

System: T1, ASNase (L-asparaginase) from Bacillus licheniformis KKU-KH14
T1 construct: gene ansZ
Conditions: L-asparagine 0.0-0.1 M; standard assay Tris-HCl pH 7.4, 30 min; temperature of the kinetic assay not stated

## NC(=O)C[C@H](N)C(=O)O [L-asparagine]
  Km: 50 mM
